Measurements as given in the supplement of paper PMC10307832.

Columns and labels:
Experiment in all cases: relative viability (nuclei count vs DMSO), 5 days (fraction); higher = more cells survive
AT-7519 + Luminespib = compound: O=C(NC1CCNCC1)c1n[nH]cc1NC(=O)c1c(Cl)cccc1Cl [AT-7519] + CCNC(=O)c1noc(-c2cc(C(C)C)c(O)cc2O)c1-c1ccc(CN2CCOCC2)cc1 [Luminespib] (partner 0.01 µM)
How it was run: (§1)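 Lung cancer cell lines were seeded in 1536-well plates and dosed by pin tool the next day, with either a single drug or a fixed anchor-drug dose combined with five library-drug doses (not always all listed) spaced in √10 steps. Five days later, one step fixed the cells and stained their nuclei (final 0.05% Triton X-100, 1% formaldehyde, 1 ug/ml Hoechst), and nuclei were counted on 4× images. Relative viability is the nuclei count in treated wells divided by the count in vehicle wells, and each value is the median of duplicate plates.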

AT-7519 + Foretinib = compound: O=C(NC1CCNCC1)c1n[nH]cc1NC(=O)c1c(Cl)cccc1Cl [AT-7519] + COc1cc2c(Oc3ccc(NC(=O)C4(C(=O)Nc5ccc(F)cc5)CC4)cc3F)ccnc2cc1OCCCN1CCOCC1 [Foretinib] (partner 0.25 µM)
How it was run: as §1

AT-7519 + Linsitinib = compound: O=C(NC1CCNCC1)c1n[nH]cc1NC(=O)c1c(Cl)cccc1Cl [AT-7519] + C[C@]1(O)C[C@@H](c2nc(-c3ccc4ccc(-c5ccccc5)nc4c3)c3c(N)nccn32)C1 [Linsitinib] (partner 1 µM)
How it was run: as §1

AT-7519 + Crizotinib = compound: O=C(NC1CCNCC1)c1n[nH]cc1NC(=O)c1c(Cl)cccc1Cl [AT-7519] + C[C@@H](Oc1cc(-c2cnn(C3CCNCC3)c2)cnc1N)c1c(Cl)ccc(F)c1Cl [Crizotinib] (partner 1 µM)
How it was run: as §1

AT-7519 + Pictilisib = compound: O=C(NC1CCNCC1)c1n[nH]cc1NC(=O)c1c(Cl)cccc1Cl [AT-7519] + CS(=O)(=O)N1CCN(Cc2cc3nc(-c4cccc5[nH]ncc45)nc(N4CCOCC4)c3s2)CC1 [Pictilisib] (partner 1 µM)
How it was run: as §1

UMC-11
relative viability (AT-7519 + Luminespib; first compound 0.01 µM): 1.06
relative viability (AT-7519 + Luminespib; first compound 0.03162 µM): 0.98
relative viability (AT-7519 + Luminespib; first compound 0.3162 µM): 0.716
relative viability (AT-7519 + Luminespib; first compound 1 µM): 0.394
relative viability (AT-7519 + Foretinib; first compound 0.01 µM): 1.1
relative viability (AT-7519 + Foretinib; first compound 0.03162 µM): 0.934
relative viability (AT-7519 + Foretinib; first compound 0.3162 µM): 0.838
relative viability (AT-7519 + Foretinib; first compound 1 µM): 0.457
relative viability (AT-7519 + Linsitinib; first compound 0.01 µM): 1.17
relative viability (AT-7519 + Linsitinib; first compound 0.03162 µM): 0.89
relative viability (AT-7519 + Linsitinib; first compound 0.3162 µM): 0.767
relative viability (AT-7519 + Linsitinib; first compound 1 µM): 0.344
relative viability (AT-7519 + Crizotinib; first compound 0.01 µM): 0.677
relative viability (AT-7519 + Crizotinib; first compound 0.03162 µM): 0.539
relative viability (AT-7519 + Crizotinib; first compound 0.3162 µM): 0.302
relative viability (AT-7519 + Crizotinib; first compound 1 µM): 0.13
relative viability (AT-7519 + Pictilisib; first compound 0.01 µM): 0.787
relative viability (AT-7519 + Pictilisib; first compound 0.03162 µM): 0.814
relative viability (AT-7519 + Pictilisib; first compound 0.3162 µM): 0.417
relative viability (AT-7519 + Pictilisib; first compound 1 µM): 0.249
